Experimental findings from paper PMC8617031, “Development of a BCL-xL and BCL-2 dual degrader with improved anti-leukemic activity,” (Nature Communications, 2021) are described below.

In one data set the target is T1, BCL-xL (Homo sapiens, UniProt Q07817).
T1 construct: endogenous in cells
Briefly: BCL-xL degradation by immunoblot in Kasumi-1 cells. In kind it is cell-based. The settings on record: Fig. 7b; for BCL-xL level, bar graph (0 = 100): two replicate columns. How it is done: (§1) Tubulin was used as an equal loading control. […] For the viability assays, the data are presented as mean ± s.d. from three replicate cell cultures in a representative experiment. Similar results were also observed in two additional independent experiments. d Representative immunoblot analyses of Kasumi-1 cells 16 h after treatment as indicated. […] Data are representative of two independent experiments. The dotted line represents the value from DMSO-treated cells. Source data are provided as a Source data file.
(§2) Cells were collected, washed once with ice-cold phosphate-buffered saline, pH 7.2 (PBS, cat. no. 20012027; Thermo Fisher Scientific) and lysed in RIPA lysis buffer (Cat. No. BP-115DG, Boston Bio Products, Ashland, MA, USA) supplemented with protease and phosphatase inhibitor cocktails (Cat. No. PPC1010, Sigma-Aldrich, St. Louis, MO, USA) through sonication. The samples were centrifuged at 14,000 r.p.m. for 5 min and the supernatants were transferred into a new tube. The protein concentration in the supernatants was determined using the Pierce BCA protein Assay kit (cat. no. 23225, Thermo Fisher Scientific). The protein concentration was normalized, and the samples were reduced in 4× Laemmli’s SDS-sample buffer (cat. no. BP-110R, Boston Bio Products) and denatured at 95 °C for 5 min. An equal amount of protein samples (20–40 μg per lane) were resolved using precast 4–20% Tris-glycine gels (Mini-PROTEAN TGX, cat. no. 456–1094, Bio-Rad), and resolved proteins were transferred onto 0.2-µm pore size polyvinylidene difluoride (PVDF) blotting membranes (cat. no. LC2002, Thermo Fisher Scientific) using mini trans-blot electrophoretic transfer cell (Bio-Rad). The membranes were blocked with non-fat dry milk (5% wt/vol) in 1× Tris-buffered saline-Tween-20 (TBST, cat. no. J77500, Affymetrix) for 1 h at room temperature, and were subsequently probed with primary antibodies at a predetermined optimal concentration in non-fat dry milk (5% wt/vol in TBST) overnight at 4 °C. The membranes were washed three times (5 min each) in TBST and then incubated with horse radish peroxidase (HRP)-conjugated secondary antibodies for 1 h at room temperature. Following sufficient washing with TBST, the membranes were exposed with chemiluminescent HRP substrate (cat. no. WBKLS0500, MilliporeSigma), and the signal was detected using the ChemiDoc MP Imaging System (Bio-Rad) and quantified using the ImageJ (v1.53a) software from NIH.
For orientation: In western blotting, separated proteins are transferred to a membrane and probed.

A further data set relates to Hela cells. Briefly: Viability (MTS) of Hela cells. In kind it is cell-based, human. The settings on record: for cell viability normalised to control wells (single replicate): in % (unit assumed). The method, then: Suspension cells were treated 30 min after seeding, whereas adherent cells were allowed to adhere overnight and were then treated. Compound treatments were prepared in complete cell culture medium and 100 µl of 2× treatment-containing medium were added to each well. Complete cell culture medium without treatment was added in control wells, and wells containing medium without cells served as background. The outer wells of the 96-well plate were not used for treatment and were filled with 250 µl of PBS to reduce evaporation of medium from inner wells. Each compound and/or combination was tested at nine different concentrations with three replicates. The cell viability was measured after 72 h by tetrazolium-based MTS assay. MTS reagent (2 mg ml^–1 stock; cat. no. G1111, Promega) was freshly supplemented with phenazine methosulfate (PMS, 0.92 mg ml^–1 stock, cat. no. P9625, Sigma-Aldrich) in 20:1 ratio, and 20 µl of this mixture was added to each control and treatment well. The cells were incubated for 4 h at 37 °C and 5% CO2, and then the absorbance was recorded at 490 nm using Biotek’s Synergy Neo2 multimode plate reader (Biotek). The average absorbance value of background wells was subtracted from absorbance value of each control and treatment well, and percent cell viability ((At/A0) × 100)) was determined in each treatment well, where At is the absorbance value of the treatment well and A0 is the average absorbance value of control wells after background subtraction. The data were expressed as average percentage cell viability and fitted in non-linear regression curves using GraphPad Prism 7 (GraphPad Software, La Jolla, CA, USA).

The next data set has as its target T2, BCL-2 (Homo sapiens, UniProt P10415).
T2 construct: endogenous in cells
The experiment in a line: BCL-2 degradation by immunoblot in Kasumi-1 cells. The note with it: Fig. 7b; for BCL-2 level, bar graph (0 = 100): two replicate columns. In kind it is cell-based. The method, then:
as §1, §2

A short description of data set [1]: Viability (MTS) of 293T cells. In kind it is cell-based, human. The note with it: human. The method, boiled down: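 Adherent cells treated after overnight attachment, nine concentrations in triplicate. After 72 h, MTS/PMS added and incubated 4 h at 37 °C before absorbance at 490 nm. Background-subtracted viability expressed as percent of untreated controls and fitted by non-linear regression.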

Where [2] appears, read: MTS absorbance 490, Conc 0.00137174 uM.
Where [3] appears, read: MTS absorbance 490, Conc 0.00411523 uM.
The mark [4] stands for this setting: MTS absorbance 490, Conc 0.037037 uM.
Setting [5] is: MTS absorbance 490, Conc 0.111111 uM.
Setting [6] is: MTS absorbance 490, Conc 0.333333 uM.
Where [7] appears, read: 293T cell viability, MTS absorbance 490 as percent of untreated control, mean of three wells, mean of 3 wells, normalised to own plate.
Where [8] appears, read: 293T cell viability, MTS absorbance 490 as percent of untreated control, single replicate well, replicate well, normalised to own plate.
[9] abbreviates: 293T cell viability, MTS absorbance 490 as percent of untreated control, single replicate well, 3 uM, replicate well, normalised to own plate.

Molecules are shown by their SMILES. Where “and” joins values, the source holds several entries; their conditions need not be identical. Equal entries are not always repeated.

T1 sequence (Q07817 whole entry): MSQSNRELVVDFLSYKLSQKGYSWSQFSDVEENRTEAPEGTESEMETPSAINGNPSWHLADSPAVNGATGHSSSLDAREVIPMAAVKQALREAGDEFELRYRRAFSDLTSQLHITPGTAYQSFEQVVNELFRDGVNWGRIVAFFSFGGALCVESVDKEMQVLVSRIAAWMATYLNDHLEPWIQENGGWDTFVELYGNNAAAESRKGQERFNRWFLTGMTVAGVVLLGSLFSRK
T2 sequence (P10415 whole entry): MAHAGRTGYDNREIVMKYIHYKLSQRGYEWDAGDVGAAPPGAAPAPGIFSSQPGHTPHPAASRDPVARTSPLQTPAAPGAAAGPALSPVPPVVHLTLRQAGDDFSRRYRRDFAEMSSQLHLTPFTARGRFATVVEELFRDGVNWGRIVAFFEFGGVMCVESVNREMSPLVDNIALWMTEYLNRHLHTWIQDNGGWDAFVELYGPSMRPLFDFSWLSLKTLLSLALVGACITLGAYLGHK

`Cc1ncsc1-c1ccc([C@H](C)NC(=O)[C@@H]2C[C@@H](O)CN2C(=O)[C@@H](NC(=O)CCCCCCC(=O)N2CCN(C[C@]3(C)CCC(c4ccc(Cl)cc4)=C(CN4CCN(c5ccc(C(=O)NS(=O)(=O)c6ccc(N[C@H](CCN7CCOCC7)CSc7ccccc7)c(S(=O)(=O)C(F)(F)F)c6)cc5)CC4)C3)CC2)C(C)(C)C)cc1` [753b]: the “BCL-xL degradation in Kasumi-1 cells (in words)” value at BCL-xL (Kasumi-1 cells, 16 h, compared with DT2216) was “more potent BCL-xL degradation”. For the same molecule, the “BCL-xL level, bar graph (0 = 100)” value at BCL-xL (concentration 0.01) is 38 and 35; at BCL-xL (concentration 0.03), 15 and 18; on BCL-xL (concentration 0.1) it was 8 and 6; at BCL-xL (concentration 0.3), 7 and 5; on BCL-xL (concentration 1), 6 and 5. Besides, the “cell viability normalised to control wells (mean of three replicates)” value is 101.835 in the data set with Hela cells (setting [2]); 93.0491 in the data set with Hela cells (setting [3]); 95.159 in the data set on Hela cells (setting [4]); 93.078 in the data set on Hela cells (setting [5]); 93.8295 in the data set on Hela cells (setting [6]); 89.5809 in the data set on Hela cells (MTS absorbance 490, Conc 1 uM). Moreover, in the data set with Hela cells (MTS absorbance 490, Conc 3 uM), the “cell viability normalised to control wells (mean of three replicates)” value is 87.6734. Moreover, the “cell viability normalised to control wells (single replicate)” value with Hela cells (setting [2]) is 103.801 and 94.6965 and 107.009; in the data set with Hela cells (setting [3]), 98.1647 and 87.1532 and 93.8295; with Hela cells (setting [4]) it was 94.6965 and 88.7139 and 102.066; with Hela cells (setting [5]), 90.1012 and 81.2572 and 107.876; in the data set on Hela cells (setting [6]), 79.8699 and 97.9913 and 103.627; with Hela cells (MTS absorbance 490, Conc 1 uM), 76.4884 and 93.6561 and 98.5983. In addition, the “cell viability normalised to control wells (single replicate)” value with Hela cells (MTS absorbance 490, Conc 3 uM) is 75.7081 and 83.5116 and 103.801. Also, the “BCL-2 degradation in Kasumi-1 cells (in words)” value on BCL-2 (Kasumi-1 cells, 16 h) is on record as “could also degrade BCL-2”. Also, the “BCL-2 level, bar graph (0 = 100)” value was 66 and 60 on BCL-2 (concentration 0.01); 44 and 48 at BCL-2 (concentration 0.03); 36 and 21 on BCL-2 (concentration 0.1); 32 and 26 on BCL-2 (concentration 0.3); 36 and 25 on BCL-2 (concentration 1).

As usually defined, the viability is a read-out of living cells in per cent, often relative to untreated cells. As for `CC1(C)CCC(c2ccc(Cl)cc2)=C(CN2CCN(c3ccc(C(=O)NS(=O)(=O)c4ccc(N[C@H](CCN5CCOCC5)CSc5ccccc5)c(S(=O)(=O)C(F)(F)F)c4)cc3)CC2)C1` [ABT263, navitoclax], the “cell viability normalised to control wells (single replicate)” value in the data set on Hela cells (setting [2]) is 109.176 and 100.419; in the data set on Hela cells (setting [3]), 94.0029 and 98.8584; with Hela cells (setting [4]) it was 90.3613 and 97.2977; in the data set on Hela cells (setting [5]), 79.4364 and 85.7659 and 104.581; with Hela cells (setting [6]) it was 80.9971 and 79.263; in the data set on Hela cells (MTS absorbance 490, Conc 1 uM) it was 85.9393 and 80.3035. Moreover, the “cell viability normalised to control wells (single replicate)” value with Hela cells (MTS absorbance 490, Conc 3 uM) is 78.7428 and 78.4827. In addition, the viability at 72 h, 0.00137174 µM in data set [1] stood at 96.2%. Moreover, the viability at 72 h, 0.00411523 µM in data set [1] came out at 94.4%. The viability at 72 h, 0.037037 µM in data set [1] (293T cell viability, MTS absorbance 490 as percent of untreated control, mean of three wells, 0.037037 uM, mean of 3 wells, normalised to own plate) was 107%. For the same molecule, in data set [1] (293T cell viability, MTS absorbance 490 as percent of untreated control, mean of three wells, 0.111111 uM, mean of 3 wells, normalised to own plate), the viability at 72 h, 0.111111 µM was 113%. For the same molecule, the viability at 72 h, 0.333333 µM in data set [1] (setting [7]) came out at 103%; in data set [1] (setting [8]), 94.3%. Also, the viability at 72 h, 1 µM in data set [1] (setting [7]) is 98.5%; in data set [1] (setting [8]), 93.3%. Besides, the viability at 72 h, 3 µM was determined as 61.1% in data set [1] (293T cell viability, MTS absorbance 490 as percent of untreated control, mean of three wells, 3 uM, mean of 3 wells, normalised to own plate) and 60.7% in data set [1] (setting [9]).

As for `Cc1ncsc1-c1ccc([C@H](C)NC(=O)[C@@H]2C[C@@H](O)CN2C(=O)[C@@H](NC(=O)CCCCCC(=O)N2CCN(CC[C@H](CSc3ccccc3)Nc3ccc(S(=O)(=O)NC(=O)c4ccc(N5CCN(CC6=C(c7ccc(Cl)cc7)CCC(C)(C)C6)CC5)cc4)cc3S(=O)(=O)C(F)(F)F)CC2)C(C)(C)C)cc1` [DT2216], the “BCL-xL level, bar graph (0 = 100)” value at BCL-xL (concentration 0.01) was 86 and 92; at BCL-xL (concentration 0.03), 59 and 63; on BCL-xL (concentration 0.1), 38 and 33; at BCL-xL (concentration 0.3), 22 and 25; at BCL-xL (concentration 1) it was 11 and 12. For the same molecule, the “cell viability normalised to control wells (single replicate)” value with Hela cells (setting [2]) is 91.7776; in the data set with Hela cells (setting [3]), 92.3987 and 92.7536; in the data set on Hela cells (setting [4]) it was 98.4324 and 86.0988; in the data set on Hela cells (setting [5]), 97.9 and 88.8495; with Hela cells (setting [6]) it was 93.1973 and 104.022; in the data set on Hela cells (MTS absorbance 490, Conc 1 uM), 83.5256 and 94.1733. The “cell viability normalised to control wells (single replicate)” value in the data set on Hela cells (MTS absorbance 490, Conc 3 uM) worked out at 80.7749. Moreover, the viability at 72 h, 0.00137174 µM in data set [1] was 106%. Also, in data set [1], the viability at 72 h, 0.00411523 µM is 104%. The viability at 72 h, 0.037037 µM in data set [1] is 106%; in data set [1] (293T cell viability, MTS absorbance 490 as percent of untreated control, single replicate well, 0.037037 uM, replicate well, normalised to own plate), 105%. In addition, the viability at 72 h, 0.111111 µM in data set [1] was determined as 110%; in data set [1] (293T cell viability, MTS absorbance 490 as percent of untreated control, single replicate well, 0.111111 uM, replicate well, normalised to own plate), 109%. The viability at 72 h, 3 µM came to 90.6% in data set [1] and 89.4% in data set [1] (setting [9]). Also, the “BCL-2 level, bar graph (0 = 100)” value was 96 and 105 on BCL-2 (concentration 0.01); 90 and 102 at BCL-2 (concentration 0.03); 92 and 98 at BCL-2 (concentration 0.1); 91 and 99 on BCL-2 (concentration 0.3); 80 and 89 at BCL-2 (concentration 1).
